What was measured:
Assay type in all cases: binding
[1] = molecular target: SW480 colon carcinoma cells lysate proteins (Homo sapiens, UniProt Q06210); conditions: PreyGene GFPT1; SW480 cells
[2] = molecular target: T1, SW480 colon carcinoma cells lysate proteins (Homo sapiens, UniProt P40926); conditions: PreyGene MDH2
T1 sequence (P40926 25-338): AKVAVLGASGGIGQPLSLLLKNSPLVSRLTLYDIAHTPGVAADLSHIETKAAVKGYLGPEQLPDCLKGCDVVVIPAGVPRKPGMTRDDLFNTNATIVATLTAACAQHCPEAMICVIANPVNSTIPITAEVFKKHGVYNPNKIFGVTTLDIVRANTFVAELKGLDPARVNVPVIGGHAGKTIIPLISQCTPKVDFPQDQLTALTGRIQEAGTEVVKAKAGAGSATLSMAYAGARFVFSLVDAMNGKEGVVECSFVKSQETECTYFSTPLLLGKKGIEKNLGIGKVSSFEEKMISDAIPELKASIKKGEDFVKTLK

[3] = molecular target: SW480 colon carcinoma cells lysate proteins (Homo sapiens, UniProt Q9HB71); conditions: PreyGene CACYBP
[4] = molecular target: SW480 colon carcinoma cells lysate proteins (Homo sapiens, UniProt Q9BVA1); conditions: PreyGene TUBB2B; SW480 cells
[5] = molecular target: T2, SW480 colon carcinoma cells lysate proteins (Homo sapiens, UniProt Q16181); conditions: PreyGene 07-Sep
T2 sequence (Q16181 1-437): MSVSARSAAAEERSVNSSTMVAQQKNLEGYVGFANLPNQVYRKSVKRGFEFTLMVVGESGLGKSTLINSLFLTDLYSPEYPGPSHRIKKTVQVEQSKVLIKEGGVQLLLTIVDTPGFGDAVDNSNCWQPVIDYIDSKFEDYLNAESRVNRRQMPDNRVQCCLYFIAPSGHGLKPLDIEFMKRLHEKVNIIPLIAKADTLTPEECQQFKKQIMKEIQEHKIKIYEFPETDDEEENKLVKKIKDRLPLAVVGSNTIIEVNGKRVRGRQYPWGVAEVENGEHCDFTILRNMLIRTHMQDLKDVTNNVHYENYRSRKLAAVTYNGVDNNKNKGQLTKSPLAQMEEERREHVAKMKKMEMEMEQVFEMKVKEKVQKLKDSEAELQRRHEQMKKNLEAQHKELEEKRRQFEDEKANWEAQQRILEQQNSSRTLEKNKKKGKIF

[6] = molecular target: SW480 colon carcinoma cells lysate proteins (Homo sapiens, UniProt Q92598); conditions: PreyGene HSPH1
[7] = molecular target: SW480 colon carcinoma cells lysate proteins (Homo sapiens, UniProt P31939); conditions: PreyGene ATIC
[8] = molecular target: SW480 colon carcinoma cells lysate proteins (Homo sapiens, UniProt Q9UHV9); conditions: PreyGene PFDN2
[9] = molecular target: T3, SW480 colon carcinoma cells lysate proteins (Homo sapiens, UniProt Q13442); conditions: PreyGene PDAP1; SW480 cells
T3 sequence (Q13442 1-181): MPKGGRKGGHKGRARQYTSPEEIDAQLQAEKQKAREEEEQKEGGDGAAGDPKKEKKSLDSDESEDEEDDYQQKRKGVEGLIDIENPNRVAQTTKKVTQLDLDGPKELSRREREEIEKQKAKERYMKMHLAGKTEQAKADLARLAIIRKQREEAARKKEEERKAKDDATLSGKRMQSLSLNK

[10] = molecular target: T4, SW480 colon carcinoma cells lysate proteins (Homo sapiens, UniProt P37837); conditions: PreyGene TALDO1
T4 sequence (P37837 1-337): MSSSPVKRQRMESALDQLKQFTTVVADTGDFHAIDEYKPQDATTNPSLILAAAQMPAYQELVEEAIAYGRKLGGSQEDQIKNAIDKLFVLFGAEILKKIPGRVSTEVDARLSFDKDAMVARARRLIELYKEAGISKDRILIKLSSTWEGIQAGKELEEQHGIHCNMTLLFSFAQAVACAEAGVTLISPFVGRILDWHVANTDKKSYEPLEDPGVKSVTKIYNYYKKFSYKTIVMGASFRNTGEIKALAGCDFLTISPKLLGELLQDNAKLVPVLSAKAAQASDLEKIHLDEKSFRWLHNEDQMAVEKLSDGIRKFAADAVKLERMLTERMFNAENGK

[11] = molecular target: SW480 colon carcinoma cells lysate proteins (Homo sapiens, UniProt P61204); conditions: PreyGene ARF3
Chain of SW480 colon carcinoma cells lysate proteins (Homo sapiens, UniProt P61204) (P61204 whole entry): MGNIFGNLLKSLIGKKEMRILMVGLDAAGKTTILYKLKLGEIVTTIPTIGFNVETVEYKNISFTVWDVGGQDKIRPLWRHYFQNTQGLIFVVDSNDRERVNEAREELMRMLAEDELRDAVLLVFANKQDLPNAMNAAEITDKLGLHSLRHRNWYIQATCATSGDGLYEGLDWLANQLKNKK

Chain of SW480 colon carcinoma cells lysate proteins (Homo sapiens, UniProt Q9UHV9) (Q9UHV9 whole entry): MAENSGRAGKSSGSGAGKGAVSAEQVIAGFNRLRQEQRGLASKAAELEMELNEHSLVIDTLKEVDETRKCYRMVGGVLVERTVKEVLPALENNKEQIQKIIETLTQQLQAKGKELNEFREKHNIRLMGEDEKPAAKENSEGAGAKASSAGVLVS
Chain of SW480 colon carcinoma cells lysate proteins (Homo sapiens, UniProt Q9HB71) (Q9HB71 whole entry): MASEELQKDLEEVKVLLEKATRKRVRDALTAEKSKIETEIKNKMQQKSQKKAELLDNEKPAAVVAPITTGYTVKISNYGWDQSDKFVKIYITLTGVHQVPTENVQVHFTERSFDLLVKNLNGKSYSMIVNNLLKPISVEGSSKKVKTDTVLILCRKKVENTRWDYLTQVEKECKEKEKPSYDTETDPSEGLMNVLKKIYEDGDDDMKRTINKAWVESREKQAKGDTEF
Chain of SW480 colon carcinoma cells lysate proteins (Homo sapiens, UniProt P31939) (P31939 whole entry): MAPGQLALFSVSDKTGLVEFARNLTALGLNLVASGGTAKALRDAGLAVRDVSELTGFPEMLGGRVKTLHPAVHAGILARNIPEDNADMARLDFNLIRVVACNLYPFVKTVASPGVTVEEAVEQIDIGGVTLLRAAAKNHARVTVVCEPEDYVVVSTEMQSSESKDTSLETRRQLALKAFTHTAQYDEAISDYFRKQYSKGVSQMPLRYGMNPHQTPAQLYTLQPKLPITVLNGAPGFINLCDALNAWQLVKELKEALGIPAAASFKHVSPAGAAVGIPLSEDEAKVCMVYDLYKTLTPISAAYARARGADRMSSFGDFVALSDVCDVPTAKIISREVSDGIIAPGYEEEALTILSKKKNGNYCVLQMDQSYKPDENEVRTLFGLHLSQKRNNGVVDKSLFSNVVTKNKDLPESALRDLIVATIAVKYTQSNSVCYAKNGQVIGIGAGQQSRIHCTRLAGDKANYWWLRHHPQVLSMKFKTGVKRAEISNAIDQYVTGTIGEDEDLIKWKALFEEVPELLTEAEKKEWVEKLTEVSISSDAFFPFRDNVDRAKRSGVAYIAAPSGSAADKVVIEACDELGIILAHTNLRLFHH
Chain of SW480 colon carcinoma cells lysate proteins (Homo sapiens, UniProt Q9BVA1) (Q9BVA1 whole entry): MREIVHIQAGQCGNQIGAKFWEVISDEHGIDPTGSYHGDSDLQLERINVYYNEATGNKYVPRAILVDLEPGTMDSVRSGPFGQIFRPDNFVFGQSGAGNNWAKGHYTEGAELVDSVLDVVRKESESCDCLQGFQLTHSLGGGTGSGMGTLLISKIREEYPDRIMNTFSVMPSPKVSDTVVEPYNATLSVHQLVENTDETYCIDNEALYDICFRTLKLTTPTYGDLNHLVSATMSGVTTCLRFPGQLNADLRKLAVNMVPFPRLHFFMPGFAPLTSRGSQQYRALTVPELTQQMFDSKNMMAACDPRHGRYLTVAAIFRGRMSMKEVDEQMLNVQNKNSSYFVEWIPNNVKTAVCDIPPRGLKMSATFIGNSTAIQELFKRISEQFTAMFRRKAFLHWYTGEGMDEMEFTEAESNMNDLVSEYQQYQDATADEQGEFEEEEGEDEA
Chain of SW480 colon carcinoma cells lysate proteins (Homo sapiens, UniProt Q06210) (Q06210 whole entry): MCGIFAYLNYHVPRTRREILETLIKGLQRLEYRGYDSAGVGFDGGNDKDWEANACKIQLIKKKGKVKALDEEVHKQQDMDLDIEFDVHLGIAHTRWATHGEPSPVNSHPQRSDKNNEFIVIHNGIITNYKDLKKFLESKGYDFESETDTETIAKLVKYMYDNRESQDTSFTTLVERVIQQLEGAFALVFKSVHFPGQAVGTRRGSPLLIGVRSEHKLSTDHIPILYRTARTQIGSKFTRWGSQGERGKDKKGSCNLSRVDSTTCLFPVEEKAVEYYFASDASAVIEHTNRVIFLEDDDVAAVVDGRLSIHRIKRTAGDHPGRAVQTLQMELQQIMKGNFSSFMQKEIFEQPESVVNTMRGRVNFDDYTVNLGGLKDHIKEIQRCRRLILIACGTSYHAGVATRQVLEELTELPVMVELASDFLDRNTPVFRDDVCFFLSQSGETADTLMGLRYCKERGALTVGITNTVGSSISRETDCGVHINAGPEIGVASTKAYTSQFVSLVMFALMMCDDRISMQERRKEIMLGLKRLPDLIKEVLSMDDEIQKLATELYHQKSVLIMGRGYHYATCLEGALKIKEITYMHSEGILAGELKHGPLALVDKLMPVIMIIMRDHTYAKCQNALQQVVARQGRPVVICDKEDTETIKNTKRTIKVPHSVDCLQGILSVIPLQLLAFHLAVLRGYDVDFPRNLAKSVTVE
Chain of SW480 colon carcinoma cells lysate proteins (Homo sapiens, UniProt Q92598) (Q92598 whole entry): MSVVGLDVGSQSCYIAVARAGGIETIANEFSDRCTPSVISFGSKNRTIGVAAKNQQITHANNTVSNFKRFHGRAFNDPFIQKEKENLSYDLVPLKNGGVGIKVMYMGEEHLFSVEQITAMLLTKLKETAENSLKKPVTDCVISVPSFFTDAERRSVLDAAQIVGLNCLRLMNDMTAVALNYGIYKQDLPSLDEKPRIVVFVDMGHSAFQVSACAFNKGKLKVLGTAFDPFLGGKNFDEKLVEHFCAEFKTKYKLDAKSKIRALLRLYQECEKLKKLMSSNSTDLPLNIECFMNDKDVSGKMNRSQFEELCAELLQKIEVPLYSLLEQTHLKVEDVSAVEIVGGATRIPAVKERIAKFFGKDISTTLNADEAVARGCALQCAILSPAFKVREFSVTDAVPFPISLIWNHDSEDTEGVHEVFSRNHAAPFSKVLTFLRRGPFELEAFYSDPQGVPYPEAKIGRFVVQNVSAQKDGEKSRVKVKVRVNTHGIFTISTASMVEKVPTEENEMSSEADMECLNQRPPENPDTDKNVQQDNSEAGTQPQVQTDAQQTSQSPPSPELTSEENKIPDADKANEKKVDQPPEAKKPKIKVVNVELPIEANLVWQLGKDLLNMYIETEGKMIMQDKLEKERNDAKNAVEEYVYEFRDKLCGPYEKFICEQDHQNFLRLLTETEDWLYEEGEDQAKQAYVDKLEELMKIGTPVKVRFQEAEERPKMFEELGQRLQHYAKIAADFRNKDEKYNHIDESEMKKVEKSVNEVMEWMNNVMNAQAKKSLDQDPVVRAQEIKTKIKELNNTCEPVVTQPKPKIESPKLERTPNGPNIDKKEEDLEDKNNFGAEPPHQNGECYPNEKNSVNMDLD

C[C@H](Oc1cc(-c2cnn(C3CCNCC3)c2)cnc1N)c1c(Cl)ccc(F)c1Cl [(5)-crizotinib]
AvgP [1]: 0
SC.Exp. 1-1 [1]: 1
SC.Exp. 1-2 [1]: 1
SC.Exp. 2-1 [1]: 0
SC.Exp. 2-2 [1]: 0
SC.Exp. Sum [1]: 2
AvgP [2]: 0.4441
SC.Exp. 1-1 [2]: 5
SC.Exp. 1-2 [2]: 5
SC.Exp. 2-1 [2]: 0
SC.Exp. 2-2 [2]: 0
Sum (SC.Exp.) [2]: 10
AvgP [3]: 0.392
SC.Exp. 1-1 [3]: 2
SC.Exp. 1-2 [3]: 2
SC.Exp. 2-1 [3]: 0
SC.Exp. 2-2 [3]: 0
Sum (SC.Exp.) [3]: 4
AvgP [4]: 0
SC.Exp. 1-1 [4]: 4
SC.Exp. 1-2 [4]: 3
SC.Exp. 2-1 [4]: 1
SC.Exp. 2-2 [4]: 2
SC.Exp. Sum [4]: 10
AvgP [5]: 0.2962
SC.Exp. 1-1 [5]: 3
SC.Exp. 1-2 [5]: 3
SC.Exp. 2-1 [5]: 0
SC.Exp. 2-2 [5]: 0
Sum (SC.Exp.) [5]: 6
AvgP [6]: 0.4697
SC.Exp. 1-1 [6]: 7
SC.Exp. 1-2 [6]: 5
SC.Exp. 2-1 [6]: 0
SC.Exp. 2-2 [6]: 0
Sum (SC.Exp.) [6]: 12
AvgP [7]: 0.4369
SC.Exp. 1-1 [7]: 3
SC.Exp. 1-2 [7]: 4
SC.Exp. 2-1 [7]: 0
SC.Exp. 2-2 [7]: 0
Sum (SC.Exp.) [7]: 7
AvgP [8]: 0.3862
SC.Exp. 1-1 [8]: 2
SC.Exp. 1-2 [8]: 2
SC.Exp. 2-1 [8]: 0
SC.Exp. 2-2 [8]: 0
Sum (SC.Exp.) [8]: 4
AvgP [9]: 0
SC.Exp. 1-1 [9]: 1
SC.Exp. 1-2 [9]: 1
SC.Exp. 2-1 [9]: 0
SC.Exp. 2-2 [9]: 0
SC.Exp. Sum [9]: 2
AvgP [10]: 0.3739
SC.Exp. 1-1 [10]: 2
SC.Exp. 1-2 [10]: 2
SC.Exp. 2-1 [10]: 0
SC.Exp. 2-2 [10]: 0
Sum (SC.Exp.) [10]: 4
AvgP [11]: 0.1881
SC.Exp. 1-1 [11]: 2
SC.Exp. 1-2 [11]: 0
SC.Exp. 2-1 [11]: 0
SC.Exp. 2-2 [11]: 0
Sum (SC.Exp.) [11]: 2

Reference: patent US9446039B2, “Aminoheteroaryl compounds as MTH1 inhibitors” (CEMM—FORSCHUNGSZENTRUM FÜR MOLEKULARE MEDIZIN GMBH, priority 2012, dated 2016)
